In the Deep4Chem optical property database one finds absorption maximum data, which are given here for 46 compounds.

The series in a line: solvent given as SMILES.

`c1ccc(-n2c(-c3ccc(N(c4ccc(-c5ccc(N(c6ccc(-c7nc8c9ccccc9c9ccccc9c8n7-c7ccccc7)cc6)c6ccc(-c7nc8c9ccccc9c9ccccc9c8n7-c7ccccc7)cc6)cc5)cc4)c4ccc(-c5nc6c7ccccc7c7ccccc7c6n5-c5ccccc5)cc4)cc3)nc3c4ccccc4c4ccccc4c32)cc1`: the absorption maximum (in ClCCl) amounted to 376 nm.

`O=S1(=O)C(c2ccsc2)=C(c2ccsc2)c2ccccc21`: the absorption maximum (in C1CCOC1) was 350 nm.

As for `CCCCCCCCc1ccc(-c2c3cc(-c4cc(CCCCCCCC)c(-c5ccc(-c6sc(/C=C7\SC(N8CCCCC8)=NC7=O)cc6CCCCCCCC)s5)s4)sc3c(-c3ccc(CCCCCCCC)s3)c3cc(-c4cc(CCCCCCCC)c(-c5ccc(-c6sc(/C=C7\SC(N8CCCCC8)=NC7=O)cc6CCCCCCCC)s5)s4)sc23)s1`, the absorption maximum (in ClC(Cl)Cl) is 475 nm.

In the case of `Cc1ccccc1`, the absorption maximum (in C1CCCCC1) came out at 256.48 nm.

As for `N#Cc1c(N2CCCCC2)cc(-c2ccc(O)cc2)c2c1-c1cccc3cccc-2c13`, the absorption maximum (in O) was 432 nm.

On to `COc1ccc(N(c2ccc(/C=C(\C)c3ccccc3)cc2)c2ccc(OC)cc2)cc1`, for which the absorption maximum (in Cc1ccccc1) is 347 nm.

Compound `COc1cc2c(cc1C=C(C#N)C#N)c1ccccc1n2C` came in with an absorption maximum (in C1CCOC1) of 423 nm; an absorption maximum (in CC#N) of 422 nm; an absorption maximum (in CCOC(C)=O) of 420 nm; an absorption maximum (in CN(C)C=O) of 428 nm; an absorption maximum (in CO) of 425 nm; an absorption maximum (in CS(C)=O) of 427 nm. In addition, the absorption maximum is, setting by setting: (in Cc1ccccc1) 425 nm; (in ClC(Cl)Cl) 430 nm; (in ClCCl) 427 nm.

For the compound `C/C=C/c1cccc(OC)c1`, for the setting “in CCCCCC”, the absorption maximum amounted to 293 nm.

Under “in ClCCl”, `CC1=C(c2ccc(N(C)C)cc2)C(C)=[N+]2C1=C(c1c(-c3ccccn3)nc3ccccn13)c1c(C)c(-c3ccc(N(C)C)cc3)c(C)n1[B-]2(F)F` registered an absorption maximum of 574 nm.

For the compound `CC1=C(Cc2ccccc2)C(C)=[N+]2C1=C(C)c1c(C)c(-c3csc(N4CCOCC4)n3)c(C)n1[B-]2(F)F`, the absorption maximum runs as follows: (in C1CCOC1) 525 nm; (in C1COCCO1) 524 nm; (in CC#N) 517 nm; (in CC(C)O) 518 nm; (in CCO) 516 nm; (in CCOC(C)=O) 523 nm. Further, the absorption maximum runs as follows: (in CN(C)C=O) 526 nm; (in CO) 514 nm; (in CS(C)=O) 522 nm; (in Cc1ccccc1) 527 nm; (in ClC(Cl)Cl) 523 nm; (in ClCCl) 522 nm.

`O=C1C=C(Nc2ccc([N+](=O)[O-])cc2[N+](=O)[O-])C(=O)c2ccccc21` showed an absorption maximum (in CO) of 437 nm.

`Cc1ccc(C2=C3C=CC(Nc4ccccc4)=[N+]3[B-](F)(F)n3c(Nc4ccccc4)ccc32)cc1` returned an absorption maximum (in CO) of 588 nm.

`Cc1ccc(N(c2ccc(C)cc2)c2ccc(-c3ccc4c(c3)C(=O)c3ccccc3C4=O)cc2)cc1`: the absorption maximum by setting is: (in C1CCOC1) 463 nm; (in CCCCCC) 457 nm; (in CCOC(C)=O) 461 nm; (in CCOCC) 459 nm; (in Cc1ccccc1) 470 nm; (in ClC(Cl)(Cl)Cl) 474 nm. The compound also yielded an absorption maximum (in ClCCl) of 476 nm.

For `COc1ccccc1-c1c2ccc(=[N+]3CCCCC3)cc-2oc2cc(N3CCCCC3)ccc12`, the absorption maximum is, setting by setting: (in CCO) 564 nm; (in ClCCl) 566 nm.

For the compound `CCOC(=O)c1c(-c2c(Cl)c3ccccc3oc2=O)nn(-c2ccccc2)c1C(=O)OCC`, the absorption maximum (in ClCCl) is given as 322 nm.

`O=S(=O)(c1cccc(-n2c3ccccc3c3ccccc32)c1)c1cccc(-n2c3ccccc3c3ccccc32)c1`: the absorption maximum turned out to be 323 nm (in C1CCOC1), 338 nm (in Cc1ccccc1) and 338 nm (in ClC(Cl)Cl).

As for `O=P1(c2ccccc2)C(c2ccc(C(F)(F)F)cc2)=Cc2ccccc21` (stereo not given), under “in C1CCOC1”, the absorption maximum was determined as 342 nm.

In the case of `Cc1cc(C2(c3cc(C)c(O)c(Br)c3)OS(=O)(=O)c3ccccc32)cc(Br)c1O`, the absorption maximum is 396 nm (in C1CCOC1); 396 nm (in C1COCCO1); 398 nm (in CC#N); 411 nm (in CC(C)(C)O); 394 nm (in CC(C)=O); 413 nm (in CC(C)O). The absorption maximum by setting is: (in CCCCCO) 417 nm; (in CCCO) 415 nm; (in CCO) 414 nm; (in CCOC(C)=O) 395 nm; (in CCOCC) 395 nm.

`Cc1ccc(-c2ccc(/C=C/c3ccc(N(C)C)cc3)cn2)nc1` registered an absorption maximum (in CC#N) of 383 nm.

With `CC(=O)c1c(N[C@@H](CS)C(=O)O)c2ccc(N(C)C)cc2oc1=O`, the absorption maximum (in ClCCl) was determined as 372 nm.

On to `CN(C)c1ccc2nc(-c3ccc(C(=O)OC(C)(C)C)cc3)sc2c1`, for which the absorption maximum was 384 nm (in C1CCCCC1); 390 nm (in CC#N); 392 nm (in CC(C)O); 393 nm (in CO); 403 nm (in CS(C)=O); 392 nm (in ClC(Cl)Cl). Moreover, under “in c1ccccc1”, the absorption maximum turned out to be 392 nm.

Consider `C(=C1c2ccccc2CCc2ccccc21)c1ccc(-c2cc(-c3ccc(C=C4c5ccccc5CCc5ccccc54)cc3)cc(-c3ccc(C=C4c5ccccc5CCc5ccccc54)cc3)c2)cc1`, for which the absorption maximum (in C1CCOC1) is 318 nm.

In turn, `COc1ccc2cc(C3=[N+]4C(=Nc5c(-c6ccc7ccccc7c6)c(Br)c(-c6ccc7cc(OC)ccc7c6)n5[B-]4(F)F)C(c4ccc5ccccc5c4)=C3Br)ccc2c1` gave an absorption maximum (in ClCCl) of 698 nm.

Turning to `Cc1cc(C)c(B(c2cc3c4c(c(B(c5c(C)cc(C)cc5C)c5c(C)cc(C)cc5C)cc5c4c2CCC5)CCC3)c2c(C)cc(C)cc2C)c(C)c1`, the absorption maximum (in CCCCCC) came out at 420 nm.

Turning to `CC(C)(C)NC(=O)c1ccc2ccc3cccc4ccc1c2c34`, the absorption maximum (in ClC(Cl)Cl) is listed as 377 nm.

`CCCCCCCCCCOc1cc(OCCCCCCCCCC)cc(C2=C3C(/C=C/c4ccc(OC)cc4)=C(C#Cc4ccc(C(C)(C)C)cc4)C(/C=C/c4ccc(OC)cc4)=[N+]3[B-](F)(F)n3c(/C=C/c4ccc(OC)cc4)c(C#Cc4ccc(C(C)(C)C)cc4)c(/C=C/c4ccc(OC)cc4)c32)c1`: under “in ClC(Cl)Cl”, the absorption maximum was 732 nm.

Under “in CO”, `O=C1C=C(Nc2ccc([N+](=O)[O-])cc2)C(=O)c2ccccc21` came in with an absorption maximum of 451 nm.

Take `Cc1ccc(/C=C/c2ccccc2-[n+]2noc([O-])c2C)cc1`: the absorption maximum is, setting by setting: (in C1CCCCC1) 314 nm; (in CC#N) 310 nm; (in CCO) 312 nm.

Where the note is “in ClCCl”, `COc1ccc(-c2cnc(/C=C/c3ccc(OC)c(OC)c3)o2)cc1` had an absorption maximum of 360 nm.

`CN(C)c1[se]c(-c2ccc(Cl)cc2)nc1-c1ccccc1` showed an absorption maximum (in ClC(Cl)Cl) of 360 nm.

`c1ccc(-c2nc(-c3ccccc3)nc(-c3ccc(-n4c5ccccc5c5cc6c(cc54)C4c5ccccc5C6c5ccccc54)cc3)n2)cc1` displayed an absorption maximum (in Cc1ccccc1) of 373 nm.

In the case of `CCCCCCN1C(=O)c2cccc3c(-c4ccc(-c5ccc(-c6ccc7c8c(cccc68)C(=O)N(CCCCCC)C7=O)s5)s4)ccc(c23)C1=O`, the absorption maximum (in ClC(Cl)Cl) is reported as 428 nm.

As for `c1ccc(-n2c3ccccc3c3cc(-c4cccc(-n5c6cccnc6c6c7sc8ccccc8c7ccc65)c4)ccc32)cc1`, the absorption maximum (in ClCCl) turned out to be 365 nm.

Where the note is “in CCO”, `CN1C(=CC2=C(O)C(=O)C2=C2C(=O)c3ccccc3C2=O)C(C)(C)c2ccccc21` displayed an absorption maximum of 492 nm.

With `CC1(C)c2ccccc2N(c2ccccc2)c2ccc(-c3ccc(S(=O)(=O)c4ccc(-c5ccc6c(c5)C(C)(C)c5ccccc5N6c5ccccc5)cc4)cc3)cc21`, where the note is “in Cc1ccccc1”, the absorption maximum is reported as 363.38 nm.

`CC(C)[Si](C#Cc1c2cc3ccccc3cc2c(C#Cc2ccc(C(F)(F)F)cc2)c2cc3ccccc3cc12)(C(C)C)C(C)C` came in with an absorption maximum (in ClCCl) of 654 nm.

Regarding `CCOC(=O)C(C(=O)OCC)C1=[N+]2C(=C(c3ccc(C)cc3)c3ccc(Cl)n3[B-]2(F)F)C=C1`, the absorption maximum by setting is: (in C1CCCCC1) 514 nm; (in C1CCOC1) 511 nm; (in CCOC(C)=O) 509 nm; (in CO) 508 nm; (in Cc1ccccc1) 515 nm; (in ClC(Cl)Cl) 513 nm.

Turning to `Cc1cc(=O)oc2cc3c4ccccc4c4ccccc4c3cc12`, the absorption maximum is, setting by setting: (in C1CCOC1) 378 nm; (in CC#N) 375 nm; (in CO) 377 nm; (in CS(C)=O) 378 nm; (in Cc1ccccc1) 381 nm; (in ClC(Cl)Cl) 362 nm.

Turning to `Cc1cc(-c2ccc(C(C)(C)C)cc2)c2nsnc2c1-c1ccc(C(C)(C)C)cc1`, for the setting “in ClCCl”, the absorption maximum is recorded as 376 nm.

`Cc1ccccc1C1=C2C=CC(=[N+](C)C)C=[C]2[Ge]([CH3])([CH3])[c]2cc(N(C)C)ccc21` gave an absorption maximum (in O) of 635 nm.

In turn, `CCC1=C(C)C2=Cc3c4ccccc4c4n3[B-](c3ccc5cc6ccccc6cc5c3)(Oc3ccccc3-4)[N+]2=C1C` (stereo not given) yielded an absorption maximum (in CC#N) of 621 nm, an absorption maximum (in CCCCCC) of 626 nm, an absorption maximum (in Cc1ccccc1) of 630 nm and an absorption maximum (in ClCCl) of 627 nm.

Compound `FC(F)(F)c1ccc(C#Cc2ncc(-c3ccccc3)o2)cc1` registered an absorption maximum (in ClCCl) of 320 nm.

Where the note is “in Cc1ccccc1”, `COC(=O)/C(C#N)=c1\s/c(=c2/s/c(=C(/C#N)C(=O)OC)c3cc(-c4ccccc4)sc23)c2sc(-c3ccccc3)cc12` gave an absorption maximum of 605 nm.

In the case of `O=c1cc(-c2ccccc2)oc(-c2nc3ccccn3c2NC2CCCCC2)c1`, the absorption maximum (in ClCCl) is 353 nm.

Take `CC1(C)c2ccccc2N(c2ccc(-c3nc(-c4ccccc4)cc(-c4ccccc4)n3)cc2)c2ccccc21`: under “in Cc1ccccc1”, the absorption maximum is recorded as 366.6 nm.

For the compound `N#Cc1cc(/C=C/c2ccc(N(c3ccccc3)c3ccccc3)cc2)ccc1/C=C/c1ccc(/C=C/c2ccc(N(c3ccccc3)c3ccccc3)cc2)cc1C#N`, the absorption maximum (in ClCCl) stood at 447 nm.
